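48-hour exposure; five concentrations; linearly interpolated endpoints. Abbreviation: GI50, concentration required for 50% inhibition of growth. Definition used: TGI = concentration required for complete inhibition of growth.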 Where a SMILES comes first, the peptide text is derived from it. [ ]: non-standard residue; d: D form. Phe(F5) = N[CH](Cc1c(F)c(F)c(F)c(F)c1F)C(=O)O

Some test systems named below: OVCAR-4 ovarian; NCI-H460 lung; HCT-116 colon; CAKI-1 renal; HOP-62 NSCLC; UACC-62 melanoma; SNB-75 CNS; LOX IMVI melanoma; BT-549 breast; DU-145 prostate.
Assay in all cases: growth of human tumour cells (NCI), 48 h

For the molecule `CN(C)c1ccc2c(NCCCCCCNc3ccnc4cc(N(C)C)ccc34)ccnc2c1`, the TGI with OVCAR-4 ovarian is 28.2 µM; in the assay on NCI-H460 lung it was 57 µM; in the assay on HCT-116 colon it was over 100 µM; in the assay with CAKI-1 renal, over 100 µM; with HOP-62 NSCLC it was 67.9 µM; with UACC-62 melanoma it was over 100 µM.
For the molecule `Nc1cc(=O)[nH]c(SC2=NC(N)CC(O)C2)n1` (stereo unspecified), the TGI with SNB-75 CNS, in the assay on OVCAR-4 ovarian, in the assay with NCI-H460 lung, in the assay on CAKI-1 renal, in the assay on LOX IMVI melanoma and in the assay with HOP-62 NSCLC was over 100 µM throughout. In addition, in the assay with UACC-62 melanoma, the TGI was over 100 µM.
Consider `CC(=O)[O][Pb]([O]C(C)=O)([c]1ccccc1)[c]1ccccc1`, for which the GI50 with SNB-75 CNS was 4.41 µM; in the assay on OVCAR-4 ovarian, over 100 µM; with NCI-H460 lung it was 7.51 µM; in the assay with HCT-116 colon it was 4.81 µM; in the assay with CAKI-1 renal it was 13.7 µM; in the assay with LOX IMVI melanoma, 1.19 µM. For the same molecule, the GI50 is 25.2 µM in the assay on HOP-62 NSCLC and 3.88 µM in the assay with UACC-62 melanoma. The TGI with SNB-75 CNS was over 77.7 µM; in the assay on OVCAR-4 ovarian, over 100 µM; with NCI-H460 lung, over 100 µM; with HCT-116 colon, over 59.1 µM; in the assay with CAKI-1 renal it was over 100 µM; in the assay on LOX IMVI melanoma it was 2.67 µM. In addition, the TGI amounted to 52 µM with HOP-62 NSCLC and 31.1 µM with UACC-62 melanoma.
As to `CN1CCc2c1nc(-c1ccccc1)c1c2N(C)CC1`, the TGI in the assay on SNB-75 CNS, in the assay with OVCAR-4 ovarian, with NCI-H460 lung, in the assay with HCT-116 colon, with CAKI-1 renal and in the assay with LOX IMVI melanoma was over 100 µM in each case. The TGI with HOP-62 NSCLC and with UACC-62 melanoma was over 100 µM each time.
As to `CCC[CH2][Sn]([CH2]CCC)([O]C(C)=O)[O]C(C)=O`, the GI50 in the assay with SNB-75 CNS was 1.02 µM; with OVCAR-4 ovarian, 1.79 µM; in the assay with NCI-H460 lung, 2.6 µM; in the assay with HCT-116 colon, 1.56 µM; with CAKI-1 renal, 0.638 µM; with LOX IMVI melanoma, 0.916 µM. The results for the GI50 in the assay with HOP-62 NSCLC and in the assay with UACC-62 melanoma were 2.17 µM and 1.09 µM, respectively. For the same molecule, the TGI worked out at 2.63 µM in the assay on SNB-75 CNS; 3.5 µM in the assay with OVCAR-4 ovarian; 7.55 µM with NCI-H460 lung; 3.26 µM in the assay with HCT-116 colon; 2.23 µM with CAKI-1 renal; 2.4 µM in the assay on LOX IMVI melanoma. Besides, the TGI with HOP-62 NSCLC was determined as 3.9 µM; in the assay on UACC-62 melanoma, 2.37 µM.
As for `CN(C)CCCNC(=O)c1cc(NC(=O)CCNS(=O)(=O)c2ccc3c(c2)C(=O)c2ccccc2C3=O)cn1C`, the GI50 in the assay on BT-549 breast, in the assay with NCI-H460 lung, in the assay with HCT-116 colon, in the assay on CAKI-1 renal, in the assay with HOP-62 NSCLC and in the assay on UACC-62 melanoma was over 100 µM in each case. Moreover, the TGI in the assay with BT-549 breast, in the assay with NCI-H460 lung, in the assay on HCT-116 colon, in the assay on CAKI-1 renal, with HOP-62 NSCLC and with UACC-62 melanoma was over 100 µM throughout.
As to `COC(=O)CCC(=O)N1Cc2cc(C)ccc2N(C(=O)CCC(=O)OC)Cc2cc(C)ccc21`, the TGI in the assay with OVCAR-4 ovarian, with NCI-H460 lung, with HCT-116 colon, in the assay with CAKI-1 renal, with LOX IMVI melanoma and in the assay with HOP-62 NSCLC was over 100 µM each time. This molecule gave a TGI with UACC-62 melanoma of over 100 µM.
Regarding `C=C1C(=O)O[C@H]2C[C@@H](C)[C@@H]3CC(=O)OC[C@@]3(C)CC12` (stereo partly specified), the TGI in the assay on SNB-75 CNS is over 100 µM; in the assay on OVCAR-4 ovarian it was 54.4 µM; in the assay with NCI-H460 lung, 51 µM; in the assay with HCT-116 colon it was over 100 µM; in the assay with CAKI-1 renal, 51 µM; with LOX IMVI melanoma, 90.5 µM. For the same molecule, the TGI was over 100 µM with HOP-62 NSCLC and 51.9 µM with UACC-62 melanoma.
Take `CS(=O)(=O)CC1=Nc2nnc(CCCCCCCc3nnc4n3C(=O)C(CS(C)(=O)=O)=N4)n2C1=O`: the TGI in the assay on SNB-75 CNS, with NCI-H460 lung, in the assay with HCT-116 colon, with CAKI-1 renal, in the assay on LOX IMVI melanoma and in the assay with HOP-62 NSCLC was over 100 µM throughout. The TGI in the assay on UACC-62 melanoma was over 100 µM.
Turning to `COC(=O)C(CC(C)C)NC(=O)C(Cc1cnc[nH]1)NC(=O)CNC(=O)C(NC(=O)C(C)NC(=O)C(Cc1c[nH]c2ccccc12)NC(=O)C(CCC(=O)O)NC(=O)C(N)Cc1c(F)c(F)c(F)c(F)c1F)C(C)C` (stereo unspecified) (H-[Phe(F5)]EWAVGHL-OMe; configuration not given here), the TGI was over 12.5 µM in the assay on DU-145 prostate; over 100 µM with SNB-75 CNS; over 100 µM with OVCAR-4 ovarian; over 100 µM in the assay with NCI-H460 lung; over 100 µM with HCT-116 colon; over 100 µM with CAKI-1 renal. In addition, the TGI in the assay on LOX IMVI melanoma is over 12.5 µM; in the assay with HOP-62 NSCLC it was over 100 µM; with UACC-62 melanoma it was over 100 µM. Besides, the GI50 in the assay on OVCAR-4 ovarian, in the assay on NCI-H460 lung, in the assay on HCT-116 colon, in the assay on CAKI-1 renal, in the assay on HOP-62 NSCLC and in the assay with UACC-62 melanoma was over 100 µM each time.
Regarding `COc1ccccc1[N-]C(C1=C([O-])c2ccccc2C1=O)c1ccccc1.COc1ccccc1[N-]C(C1=C([O-])c2ccccc2C1=O)c1ccccc1.[Cu+2]` (stereo unspecified), the GI50 was 11.9 µM in the assay on SNB-75 CNS; 6.76 µM with NCI-H460 lung; 3.26 µM in the assay with HCT-116 colon; 12.7 µM in the assay with CAKI-1 renal; 8.64 µM in the assay on LOX IMVI melanoma; 25.2 µM in the assay with HOP-62 NSCLC. Besides, in the assay with UACC-62 melanoma, the GI50 was 6.66 µM. For the same molecule, the TGI is 37.1 µM in the assay on SNB-75 CNS; over 100 µM in the assay with NCI-H460 lung; over 100 µM in the assay with HCT-116 colon; 54.5 µM in the assay with CAKI-1 renal; 95.2 µM in the assay on LOX IMVI melanoma; 68.6 µM with HOP-62 NSCLC. For the same molecule, the TGI with UACC-62 melanoma turned out to be 42.4 µM.
Regarding `O=C(NCCCCCCNC(=O)c1cccc2ccccc12)c1cccc2ccccc12`, the TGI is 9.55 µM in the assay with SNB-75 CNS; 58.6 µM with OVCAR-4 ovarian; over 100 µM with NCI-H460 lung; 53.9 µM in the assay with HCT-116 colon; 66.3 µM with CAKI-1 renal; 44.3 µM with LOX IMVI melanoma. For the same molecule, the TGI is 48.3 µM with HOP-62 NSCLC and over 100 µM with UACC-62 melanoma.
Regarding `COC12C=CC(CC1)c1c(O)ccc(O)c12` (stereo unspecified), the TGI in the assay with SNB-75 CNS is over 100 µM; in the assay on OVCAR-4 ovarian, 46.6 µM; with NCI-H460 lung, over 100 µM; in the assay on HCT-116 colon, over 100 µM; in the assay on CAKI-1 renal, over 100 µM; in the assay with HOP-62 NSCLC, over 100 µM. For the same molecule, in the assay with UACC-62 melanoma, the TGI was over 100 µM.

These data come from PubChem BioAssay (NCI).
